Results from patent publication US12091402B2 (Avilar Therapeutics, Inc., priority 2021, dated 2024).
Like-named read-outs stand apart in the source and are kept apart here. Where a SMILES comes first, the peptide text is derived from it. Bridges are numbered along the chain shown (N, C = ends). [ ]: non-standard residue; d: D form. The star is where a group is joined. X3 = O=C(CCOCC(COCCC(=O)NCCOCCOCCOCCOC[C@@]12CO[C@@H](O1)[C@H](Nc1nc(Cl)ns1)[C@@H](O)[C@H]2O)NC(=O)CCCCCn1cc(CCCC(=O)*)nn1)NCCOCCOCCOCCOC[C@@]12CO[C@@H](O1)[C@H](Nc1nc(Cl)ns1)[C@@H](O)[C@H]2O; Pro(4S-NH2) = N[C@@H]1CN[C@H](C(=O)O)C1; PEG4 = NCCOCCOCCOCCOCCC(=O)O; hSer = N[C@@H](CCO)C(=O)O

Tests used:
[1] = molecular target: IgG; test: Affinity to IgG by surface plasmon resonance (SPR); assay type: binding
Protocol: Immobilization levels ranging from 1000-1300 resonance units (RU) are obtained. The running buffer is 10 mM HEPES, pH 7.4, 400 mM NaCl, 0.005% P20, […].

[2] = molecular target: T1, ASGPR (Homo sapiens, UniProt P07306); test: Affinity to ASGPR by surface plasmon resonance (SPR)
T1 sequence (P07306 1-291): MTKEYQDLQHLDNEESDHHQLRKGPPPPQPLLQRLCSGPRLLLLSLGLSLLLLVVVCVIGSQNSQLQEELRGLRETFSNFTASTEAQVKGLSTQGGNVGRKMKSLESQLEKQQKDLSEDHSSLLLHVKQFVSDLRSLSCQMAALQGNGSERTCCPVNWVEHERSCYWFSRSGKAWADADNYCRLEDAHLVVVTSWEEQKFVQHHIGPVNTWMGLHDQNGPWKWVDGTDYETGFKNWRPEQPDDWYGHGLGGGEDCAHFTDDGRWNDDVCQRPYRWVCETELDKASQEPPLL
Protocol: Biotinylated ASGPR (20 μg/ml) was immobilized on SA sensor chips (GE Healthcare) at flow rate of 5 μl/min for 90 sec reaching an immobilization level ranging from 500-3000 resonance units (RU). The running buffer was 50 mM HEPES, pH7.5, 150 mM NaCl, 50 mM CaCl2), 0.01% P20, 3% DMSO. The concentration of compounds vary from 2 mM to 5 nM depending on Kd values. The compounds are diluted 2 or 3-fold with 8 concentration points. Solutions containing serially diluted compounds are injected at a flow rate of 40 μL/min for 150-300 sec followed by a 90-300 sec dissociation phase for each concentration. The surface was regenerated using 50 mM HEPES, pH 7.5, 150 mM NaCl, 5 mM EDTA, 0.01% P20, 3% DMSO.
Data was processed using the analysis software in Biacore 8K to perform background subtraction, double referencing, and solvent correction. Values of affinity expressed as the dissociation constants (Kd) were determined by fitting the steady state binding responses (RUs) as a function of the concentration ([Compound]) using the following equation: RU=RUmax/(KD+[Compound]), where RU max is the calculated maximal response. Where appropriate double-referenced data were fit to using a 1:1 binding model for kinetic analysis.

[3] = Biacore 8K, 25° C., IgG on CM5 chip, read-out: IgG SPR Binding Kd

Structure (SMILES) | Kd [1, 3] [nM] | Kd ([1]; SPR, read-out: IgG KD) [nM] | Kd [2] [nM]
CC(C)C[C@@H]1NC(=O)[C@H](Cc2cnc[nH]2)NC(=O)[C@H](Cc2c[nH]c3ccccc23)NC(=O)[C@H](C)NC(=O)[C@@H]2CSSC[C@H](NC(=O)[C@H](Cc3c[nH]c4ccccc34)NC(=O)[C@H](C(C)C)NC(=O)[C@H](CC(C)C)NC(=O)[C@H](CCC(=O)O)NC(=O)CNC1=O)C(=O)N[C@@H]([C@@H](C)O)C(=O)N1CCC[C@@H]1C(=O)N1C[C@@H](N)C[C@H]1C(=O)N[C@@H](C)C(=O)N2 [Intermediate 12] | < 100 | < 100 | –
CC(C)C[C@@H]1NC(=O)[C@H](C)NC(=O)CNC(=O)[C@H](CC(C)C)NC(=O)[C@H](Cc2cnc[nH]2)NC(=O)[C@H](Cc2c[nH]c3ccccc23)NC(=O)[C@H](C)NC(=O)[C@@H]2CSSC[C@H](NC(=O)[C@H](Cc3c[nH]c4ccccc34)NC(=O)[C@H](C(C)C)NC1=O)C(=O)N[C@@H]([C@@H](C)O)C(=O)N1CCC[C@@H]1C(=O)N1C[C@@H](N)C[C@H]1C(=O)N[C@@H](CC(N)=O)C(=O)N2 [Intermediate 28] (cyclo(ALVWCT[dP][Pro(4S-NH2)]NCAWHLG); disulfide 5-10) | < 100 | < 100 | –
CC(C)C[C@@H]1NC(=O)[C@H](Cc2cnc[nH]2)NC(=O)[C@H](Cc2c[nH]c3ccccc23)NC(=O)[C@H](C)NC(=O)[C@@H]2CSSC[C@H](NC(=O)[C@@H](Cc3c[nH]c4ccccc34)NC(=O)[C@H](C(C)C)NC(=O)[C@H](CC(C)C)NC(=O)[C@H](CCC(=O)O)NC(=O)CNC1=O)C(=O)N[C@@H]([C@@H](C)O)C(=O)N1CCC[C@@H]1C(=O)N1C[C@@H](N)C[C@H]1C(=O)N[C@@H](CC(=O)O)C(=O)N2 (stereo in doubt) [Intermediate 24] | < 100 | < 100 | –
CC(C)C[C@@H]1NC(=O)[C@H](C)NC(=O)CNC(=O)[C@H](CC(C)C)NC(=O)[C@H](Cc2cnc[nH]2)NC(=O)[C@H](Cc2c[nH]c3ccccc23)NC(=O)[C@H](C)NC(=O)[C@@H]2CSSC[C@H](NC(=O)[C@H](Cc3c[nH]c4ccccc34)NC(=O)[C@H](C(C)C)NC1=O)C(=O)N[C@@H]([C@@H](C)O)C(=O)N1CCC[C@@H]1C(=O)N1C[C@@H](N)C[C@H]1C(=O)N[C@@H](CC(=O)O)C(=O)N2 [Intermediate 17] (cyclo(ALVWCT[dP][Pro(4S-NH2)]DCAWHLG); disulfide 5-10) | < 100 | < 100 | –
CC(C)C[C@@H]1NC(=O)[C@H](C)NC(=O)CNC(=O)[C@H](CC(C)C)NC(=O)[C@H](Cc2cnc[nH]2)NC(=O)[C@H](Cc2c[nH]c3ccccc23)NC(=O)[C@H](C)NC(=O)[C@@H]2CSSC[C@H](NC(=O)[C@H](Cc3c[nH]c4ccccc34)NC(=O)[C@H](C(C)C)NC1=O)C(=O)N[C@@H]([C@@H](C)O)C(=O)N1CCC[C@@H]1C(=O)N1C[C@@H](N)C[C@H]1C(=O)N[C@@H](C)C(=O)N2 [Intermediate 25] (cyclo(ACAWHLGALVWCT[dP][Pro(4S-NH2)]); disulfide 2-12) | < 100 | < 100 | –
C#CCCCC(=O)N[C@H]1C[C@H]2C(=O)N[C@@H](CC(=O)O)C(=O)N[C@H]3CSSC[C@H](NC(=O)[C@H](Cc4c[nH]c5ccccc45)NC(=O)[C@H](C(C)C)NC(=O)[C@H](CC(C)C)NC(=O)[C@H](CCC(=O)O)NC(=O)CNC(=O)[C@H](CC(C)C)NC(=O)[C@H](Cc4cnc[nH]4)NC(=O)[C@H](Cc4c[nH]c5ccccc45)NC(=O)[C@H](C)NC3=O)C(=O)N[C@@H]([C@@H](C)O)C(=O)N3CCC[C@@H]3C(=O)N2C1 [Intermediate 8] | – | < 100 | –
C#CCCCC(=O)NCCOCCOCCC(=O)N[C@H]1C[C@H]2C(=O)N[C@@H](CC(=O)O)C(=O)N[C@H]3CSSC[C@H](NC(=O)[C@H](Cc4c[nH]c5ccccc45)NC(=O)[C@H](C(C)C)NC(=O)[C@H](CC(C)C)NC(=O)[C@H](CCC(=O)O)NC(=O)CNC(=O)[C@H](CC(C)C)NC(=O)[C@H](Cc4cnc[nH]4)NC(=O)[C@H](Cc4c[nH]c5ccccc45)NC(=O)[C@H](C)NC3=O)C(=O)N[C@@H]([C@@H](C)O)C(=O)N3CCC[C@@H]3C(=O)N2C1 [Intermediate 6] | < 100 | – | –
CC(C)C[C@@H]1NC(=O)[C@H](Cc2cnc[nH]2)NC(=O)[C@H](Cc2c[nH]c3ccccc23)NC(=O)[C@H](C)NC(=O)[C@@H]2CSSC[C@H](NC(=O)[C@H](Cc3c[nH]c4ccccc34)NC(=O)[C@H](C(C)C)NC(=O)[C@H](CC(C)C)NC(=O)[C@H](CCC(N)=O)NC(=O)CNC1=O)C(=O)N[C@@H]([C@@H](C)O)C(=O)N1CCC[C@@H]1C(=O)N1C[C@@H](N)C[C@H]1C(=O)N[C@@H](CC(=O)O)C(=O)N2 [Intermediate 18] (cyclo(AWHLGQLVWCT[dP][Pro(4S-NH2)]DC); disulfide 10-15) | < 100 | < 100 | –
C#CCCCC(=O)NCCOCCOCCOCCOCCC(=O)N[C@H]1C[C@H]2C(=O)N[C@@H](CC(=O)O)C(=O)N[C@H]3CSSC[C@H](NC(=O)[C@H](Cc4c[nH]c5ccccc45)NC(=O)[C@H](C(C)C)NC(=O)[C@H](CC(C)C)NC(=O)[C@H](CCC(=O)O)NC(=O)CNC(=O)[C@H](CC(C)C)NC(=O)[C@H](Cc4cnc[nH]4)NC(=O)[C@H](Cc4c[nH]c5ccccc45)NC(=O)[C@H](C)NC3=O)C(=O)N[C@@H]([C@@H](C)O)C(=O)N3CCC[C@@H]3C(=O)N2C1 [Intermediate 4] | < 100 | < 100 | –
C#CCCCC(=O)NCCOCCOCCOCCOCCC(=O)N[C@@H](CC(=O)O)C(=O)N[C@H]1CSSC[C@@H](C(=O)N[C@H](C(N)=O)[C@@H](C)O)NC(=O)[C@H](Cc2c[nH]c3ccccc23)NC(=O)[C@H](C(C)C)NC(=O)[C@H](CC(C)C)NC(=O)[C@H](CCC(=O)O)NC(=O)CNC(=O)[C@H](CC(C)C)NC(=O)[C@H](Cc2cnc[nH]2)NC(=O)[C@H](Cc2c[nH]c3ccccc23)NC(=O)[C@H](C)NC1=O [Intermediate 1] | < 100 | < 100 | –
C#CCCCC(=O)NCCOCCOCCOCCC(=O)N[C@H]1C[C@H]2C(=O)N[C@@H](CC(=O)O)C(=O)N[C@H]3CSSC[C@H](NC(=O)[C@H](Cc4c[nH]c5ccccc45)NC(=O)[C@H](C(C)C)NC(=O)[C@H](CC(C)C)NC(=O)[C@H](CCC(=O)O)NC(=O)CNC(=O)[C@H](CC(C)C)NC(=O)[C@H](Cc4cnc[nH]4)NC(=O)[C@H](Cc4c[nH]c5ccccc45)NC(=O)[C@H](C)NC3=O)C(=O)N[C@@H]([C@@H](C)O)C(=O)N3CCC[C@@H]3C(=O)N2C1 [Intermediate 9] | < 100 | – | –
C#CCCCC(=O)NCCOCCOCCOCCOCCNC(=O)CC[C@@H]1NC(=O)CNC(=O)[C@H](CC(C)C)NC(=O)[C@H](Cc2cnc[nH]2)NC(=O)[C@H](Cc2c[nH]c3ccccc23)NC(=O)[C@H](C)NC(=O)[C@@H](NC(=O)[C@@H](N)CC(=O)O)CSSC[C@@H](C(=O)N[C@H](C(N)=O)[C@@H](C)O)NC(=O)[C@H](Cc2c[nH]c3ccccc23)NC(=O)[C@H](C(C)C)NC(=O)[C@H](CC(C)C)NC1=O [Intermediate 2] | < 100 | – | –
CC(C)C[C@@H]1NC(=O)[C@H](Cc2cnc[nH]2)NC(=O)[C@H](Cc2c[nH]c3ccccc23)NC(=O)[C@H](CCO)NC(=O)[C@@H]2CSSC[C@H](NC(=O)[C@H](Cc3c[nH]c4ccccc34)NC(=O)[C@H](C(C)C)NC(=O)[C@H](CC(C)C)NC(=O)[C@H](CCC(=O)O)NC(=O)CNC1=O)C(=O)N[C@@H]([C@@H](C)O)C(=O)N1CCC[C@@H]1C(=O)N1C[C@@H](N)C[C@H]1C(=O)N[C@@H](CC(=O)O)C(=O)N2 [Intermediate 21] (cyclo(CT[dP][Pro(4S-NH2)]DC[hSer]WHLGELVW); disulfide 1-6) | < 100 | < 100 | –
CC(C)C[C@@H]1NC(=O)[C@H](Cc2cnc[nH]2)NC(=O)[C@H](Cc2c[nH]c3ccccc23)NC(=O)[C@H](C)NC(=O)[C@@H]2CSSC[C@H](NC(=O)[C@H](Cc3c[nH]c4ccccc34)NC(=O)[C@H](C(C)C)NC(=O)[C@H](CC(C)C)NC(=O)[C@H](CCC(=O)O)NC(=O)CNC1=O)C(=O)N[C@@H]([C@@H](C)O)C(=O)N1CCC[C@@H]1C(=O)N1C[C@H](N)C[C@H]1C(=O)N[C@@H](CC(=O)O)C(=O)N2 [Intermediate 30] | – | < 100 | –
CC(C)C[C@@H]1NC(=O)[C@@H](NC(=O)[C@@H](NC(=O)[C@H](CCC(N)=O)NC(=O)[C@H](Cc2c[nH]cn2)NC(=O)CCOCCOCCOCCOCCNC(=O)CCCc2cn(CCCCCC(=O)NC(COCCC(=O)NCCOCCOCCOCCOC[C@@]34CO[C@@H](O3)[C@H](Nc3nc(Cl)ns3)[C@@H](O)[C@H]4O)COCCC(=O)NCCOCCOCCOCCOC[C@@]34CO[C@@H](O3)[C@H](Nc3nc(Cl)ns3)[C@@H](O)[C@H]4O)nn2)C(C)C)CSSC[C@@H](C(=O)N[C@@H](Cc2ccccc2)C(=O)N[C@@H](CO)C(=O)N[C@H](C(N)=O)[C@@H](C)O)NC(=O)[C@H](C(C)C)NC(=O)[C@@H]2CCCN2C(=O)[C@H](CCCNC(=N)N)NC(=O)CNC(=O)[C@H](CCCNC(=N)N)NC(=O)[C@H](Cc2ccc(O)cc2)NC(=O)[C@H](CO)NC1=O [Compound 19] ({X3-PEG4}-HQVCLSYRGRPVCFST-NH2; disulfide 4-13) | – | – | < 100
O=C(O)COCCOCC(=O)NC(COCCC(=O)NCCOCCOCCOCCOC[C@H]1OC[C@H](Nc2nccc(C(F)(F)F)n2)[C@@H](O)[C@H]1O)COCCC(=O)NCCOCCOCCOCCOC[C@H]1OC[C@H](Nc2nccc(C(F)(F)F)n2)[C@@H](O)[C@H]1O [A24, 1-((2R,3R,4R,5S)-3,4-dihydroxy-5-((4-(trifluoromethyl)pyrimidin-2-yl)amino)tetrahydro-2H-pyran-2-yl)-20-(1-((2R,3R,4R,5S)-3,4-dihydroxy-5-((4-(trifluoromethyl)pyrimidin-2-yl)amino)tetrahydro-2H-pyran-2-yl)-15-oxo-2,5,8,11,18-pentaoxa-14-azanonadecan-19-yl)-15,22-dioxo-2,5,8,11,18,24,27-heptaoxa-14,21-diazanonacosan-29-oic acid] | – | – | < 100
